Results as given in article PMC11162469, “Discovery of RXFP2 genetic association in resistant hypertensive men and RXFP2 antagonists for the treatment of resistant hypertension” (Scientific Reports, 2024).
Bridge positions count the residues as written; N and C are the ends. Ends that are not written are not given here. I, II: the chains in the order shown.

Tests used:
RXFP2 [1] = target: T1, RXFP2 (Homo sapiens, UniProt Q8WXD0); assay: INSL3-stimulated cAMP assay in HEK293 stably expressing human RXFP2
T1 sequence (Q8WXD0 whole entry): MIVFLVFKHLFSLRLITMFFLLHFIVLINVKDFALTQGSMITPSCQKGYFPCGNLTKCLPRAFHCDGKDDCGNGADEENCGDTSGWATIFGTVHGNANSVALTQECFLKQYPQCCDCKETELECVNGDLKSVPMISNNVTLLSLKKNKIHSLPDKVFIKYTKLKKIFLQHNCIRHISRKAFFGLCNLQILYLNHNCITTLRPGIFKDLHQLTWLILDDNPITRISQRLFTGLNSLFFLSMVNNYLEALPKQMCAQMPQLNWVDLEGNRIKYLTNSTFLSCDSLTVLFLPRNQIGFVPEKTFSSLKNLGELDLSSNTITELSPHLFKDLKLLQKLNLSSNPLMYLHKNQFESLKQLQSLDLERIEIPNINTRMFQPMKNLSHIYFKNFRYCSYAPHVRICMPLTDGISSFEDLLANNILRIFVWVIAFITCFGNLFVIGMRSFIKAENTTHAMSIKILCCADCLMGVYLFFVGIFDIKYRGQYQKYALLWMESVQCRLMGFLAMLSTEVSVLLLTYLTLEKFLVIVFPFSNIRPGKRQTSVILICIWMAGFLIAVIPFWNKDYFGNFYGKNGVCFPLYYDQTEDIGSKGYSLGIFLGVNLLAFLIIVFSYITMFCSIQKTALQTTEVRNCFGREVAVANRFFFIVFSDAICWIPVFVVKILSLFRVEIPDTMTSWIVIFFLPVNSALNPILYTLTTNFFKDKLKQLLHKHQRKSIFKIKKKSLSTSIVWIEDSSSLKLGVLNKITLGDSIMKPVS

RXFP2 [2] = target: T1, RXFP2; assay: cell-based
rat RXFP2 [3] = assay: INSL3-stimulated cAMP assay in HEK293 with BacMam expression of rat RXFP2; format: cell-based; conditions: read-out: EC50 cAMP in HEK293 transiently expressing rat RXFP2
Description: Active compounds (RXFP2 HTRF IC50 < 100 µM, RXFP2 FLIPR IC50 < 100 µM) were profiled to determine selectivity and rat cross-reactivity (Fig. 2). The RXFP1 assay detected compound inhibition of relaxin EC80-induced cAMP in HEK293 transiently expressing human RXFP1 (hRXFP1). […] Only 7 of 104 compounds had rRXFP2 IC50 < 100 µM, indicating poorly conserved receptor binding sites across species. RXFP2 blockers were organized into two potential series, based on structural similarity. […] BRL-37274 and GSK618069 were identified as selective RXFP2 antagonists. […] Ultimately, poor chemical properties and low ligand efficiency limited further compound optimization (Table 1, Supplementary Figs. S6, S7).
The nucleotide sequences used in Bacmam transfections encoded RXFP protein as described in UniProt (Q9HBX9. RXFP1_human; Q8WXD0. RXFP2_human; Q5ECL0. RXFP2_rat). […]
(§1) cAMP generation was measured using the Lance Ultra cAMP kit as per manufacturer’s instructions (Perkin Elmer) in HEK293 cells transduced in tissue culture flasks with RXFP BacMam, incubated at 37 °C/5% CO2 for 18 h before assay. […] After a 30 min incubation, 4 µL of Lance detection reagent was added and the FRET signal read 1 h later using a TR-FRET-capable plate reader, with excitation at 340 nm and emission at 615 nm and 665 nm. […]

RXFP2 [4] = target: T1, RXFP2; assay: INSL3-stimulated cAMP assay in HEK293 with BacMam expression of human RXFP2; format: cell-based; parameters: expressed in transfected cells; host or cells: HEK293-MSRII, BacMam transduction (MOI 5); conditions: HTRF primary assay, read-out: EC50 cAMP in HEK293 expressing human RXFP2
Excerpt: A high throughput screen (HTS) assay was developed using HEK293 cells transduced with RXFP2 via baculovirus-mediated gene transfer (BacMam)[40]. […] The HTS campaign identified 104 hits across 8 clusters showing blockade of hRXFP2.
The nucleotide sequences used in Bacmam transfections encoded RXFP protein as described in UniProt (Q9HBX9. RXFP1_human; Q8WXD0. RXFP2_human; Q5ECL0. RXFP2_rat). HEK293- MSRII cells were maintained in DMEM‐F12, supplemented with 10% fetal bovine serum (FBS) and L-glutamine at 37 °C/5% CO2. HEK293 stably expressing Gα16 were maintained in DMEM‐F12, supplemented with 10% FBS, L-glutamine and selection antibiotics at 37 °C/5% CO2. Transient receptor expression was achieved using modified baculoviruses (BacMam), generated according to manufacturer’s instructions using the Bac-to-Bac system (Invitrogen, UK) encoding hRXFP1, hRXFP2 or rRXFP2. Cells were transduced with RXFP-BacMam at an optimized multiplicity of infection (MOI) of 5.
as §1

rat RXFP2 [5] = target: T2, rat RXFP2 (Rattus norvegicus, UniProt F7EMH8); assay: INSL3-stimulated cAMP assay in HEK293 stably expressing rat RXFP2;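 further: cAMP measured with an HitHunter kit in 384-well plates, 11-point dose–response curves up to 1 µM antibody, four-parameter variable-slope fit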
T2 sequence (F7EMH8 20-737): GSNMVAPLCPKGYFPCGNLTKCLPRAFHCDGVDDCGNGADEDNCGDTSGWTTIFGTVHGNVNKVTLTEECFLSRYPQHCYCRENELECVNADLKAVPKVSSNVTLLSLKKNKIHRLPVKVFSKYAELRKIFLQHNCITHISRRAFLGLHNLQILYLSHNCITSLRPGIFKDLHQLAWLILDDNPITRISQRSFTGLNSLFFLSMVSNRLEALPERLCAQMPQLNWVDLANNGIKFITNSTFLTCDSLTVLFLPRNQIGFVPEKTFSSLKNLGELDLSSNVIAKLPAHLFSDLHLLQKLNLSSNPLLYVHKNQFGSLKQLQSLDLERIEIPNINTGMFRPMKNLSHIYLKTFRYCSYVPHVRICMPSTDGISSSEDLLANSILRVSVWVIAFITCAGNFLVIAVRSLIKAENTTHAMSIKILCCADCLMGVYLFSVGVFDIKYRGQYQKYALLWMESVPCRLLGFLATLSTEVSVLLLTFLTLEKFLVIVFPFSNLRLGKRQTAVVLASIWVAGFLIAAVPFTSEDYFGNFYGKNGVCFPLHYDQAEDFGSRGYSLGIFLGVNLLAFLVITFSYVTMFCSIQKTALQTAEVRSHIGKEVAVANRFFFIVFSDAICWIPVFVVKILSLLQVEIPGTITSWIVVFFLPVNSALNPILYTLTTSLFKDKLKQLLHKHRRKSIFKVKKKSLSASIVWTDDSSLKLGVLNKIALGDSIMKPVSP

rat RXFP2 [6] = target: T2, rat RXFP2; assay: INSL3-stimulated CYP11B2 mRNA expression in H295R stably expressing rat RXFP2; format: cell-based; parameters: expressed in transfected cells; conditions: 48 h of treatment; read-out: EC50 on CYP11B2 mRNA expression, H295R-rRXFP2
Description: (§2) RXFP2 antagonists were added to H295R-rRXFP2 before addition of INSL3 EC80 (3.5 nM) for 48 h, whereupon the cells and supernatants were collected. CYP11B1 and CYP11B2 mRNA were determined by qPCR and the RXFP2 blocker potencies were calculated (Fig. 5a). Fifteen antibodies have IC50s < 50 nM, and three of the top antibodies (1F2, 4G6, and 2D4) were selected for evaluation in steroid hormone secretion assays by ELISA.
(§3) Data entered as XY table, with x = [Inhibitor] (nM) and y = CYP11B2 or CYP11B1 fold change.

rat RXFP2 [7] = target: T2, rat RXFP2; assay: INSL3-stimulated CYP11B1 mRNA expression in H295R stably expressing rat RXFP2; format: cell-based; parameters: expressed in transfected cells; conditions: 48 h of treatment; read-out: EC50 on CYP11B1 mRNA expression, H295R-rRXFP2
Description: as §2, §3

## I: PTPEMREKLCGHHFVRALVRVCGGPRWSTEA / II: AAATNPARYCCLSGCTQQDLLTLCPY (disulfide I:10-II:11, I:22-II:24, II:10-II:15) [INSL3, Insulin-like peptide 3]
RXFP2 [1]
  EC50: 2.9 nM
RXFP2 [2]
  EC50: 13.4 nM
Rat RXFP2 [3]
  EC50: 13 nM
RXFP2 [4]
  EC50: 0.048 nM
Rat RXFP2 [5]
  EC50: 8.4 nM
Rat RXFP2 [6]
  EC50: 0.4 nM
Rat RXFP2 [7]
  EC50: 0.3 nM
